The values below come from publication PMC6028563, “Probing Substituents in the 1- and 3-Position: Tetrahydropyrazino-Annelated Water-Soluble Xanthine Derivatives as Multi-Target Drugs With Potent Adenosine Receptor Antagonistic Activity” (Frontiers in Chemistry, 2018).

Read-outs that look alike come from different tables or passages of the source.

Experiment [1] relates to passive avoidance test. Also noted: method as in Mihara et al., 2007. Particulars: rats; ref Mihara et al., 2007; cited from earlier work.
For experiment [2], the target named is T1, recombinant human MAO-B (Homo sapiens, UniProt P27338).
T1 construct: purchased Sigma-Aldrich M7441; host or cells: baculovirus-infected insect cells
T1 sequence (P27338 1-520): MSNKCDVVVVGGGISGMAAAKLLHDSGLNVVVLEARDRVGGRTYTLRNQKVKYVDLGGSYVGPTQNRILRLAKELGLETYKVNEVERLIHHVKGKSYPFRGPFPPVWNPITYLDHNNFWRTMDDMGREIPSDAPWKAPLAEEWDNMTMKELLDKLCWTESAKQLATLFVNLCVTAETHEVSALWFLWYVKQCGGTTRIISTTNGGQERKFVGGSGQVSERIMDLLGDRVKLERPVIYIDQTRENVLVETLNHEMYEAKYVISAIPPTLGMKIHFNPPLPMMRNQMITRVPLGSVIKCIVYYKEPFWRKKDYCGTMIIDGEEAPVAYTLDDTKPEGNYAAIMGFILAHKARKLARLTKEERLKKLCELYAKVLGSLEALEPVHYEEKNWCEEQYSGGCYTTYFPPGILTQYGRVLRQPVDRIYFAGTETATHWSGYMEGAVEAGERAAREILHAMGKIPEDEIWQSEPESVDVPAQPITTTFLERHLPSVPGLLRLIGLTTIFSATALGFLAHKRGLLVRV
Briefly: Monoamine oxidase assay (Amplex Red), MAO-B. Type of experiment: biochemical. Particulars: for inhibition at 10 µM: at 10,000 nM (10 μM), read-out: % inhibition at indicated concentration, Human MAO-B; for IC50: n = 3, read-out: IC50 ± SEM, Human MAO-B. The essentials: (§1)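 Recombinant human MAO-A and MAO-B, expressed in baculovirus-infected insect cells, were assayed by Amplex Red fluorometric detection. Rat MAO-B inhibition used mitochondria-enriched fractions from male Sprague Dawley rat liver.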

The target of experiment [3] is T2, recombinant human MAO-A (Homo sapiens, UniProt P21397).
T2 construct: purchased Sigma-Aldrich M7316; host or cells: baculovirus-infected insect cells
T2 sequence (P21397 1-527): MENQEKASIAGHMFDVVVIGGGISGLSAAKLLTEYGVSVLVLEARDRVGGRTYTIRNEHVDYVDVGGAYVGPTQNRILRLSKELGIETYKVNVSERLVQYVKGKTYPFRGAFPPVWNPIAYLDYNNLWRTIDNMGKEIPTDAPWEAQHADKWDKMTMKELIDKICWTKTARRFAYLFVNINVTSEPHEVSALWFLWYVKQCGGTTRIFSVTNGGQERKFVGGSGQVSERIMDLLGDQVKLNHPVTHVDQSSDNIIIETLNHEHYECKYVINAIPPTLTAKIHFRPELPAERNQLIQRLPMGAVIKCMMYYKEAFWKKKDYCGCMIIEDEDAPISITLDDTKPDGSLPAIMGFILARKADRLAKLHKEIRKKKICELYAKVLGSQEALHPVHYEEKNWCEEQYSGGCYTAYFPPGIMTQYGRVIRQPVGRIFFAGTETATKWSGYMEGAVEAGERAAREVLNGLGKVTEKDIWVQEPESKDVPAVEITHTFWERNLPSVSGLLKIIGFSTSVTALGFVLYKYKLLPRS
Particulars: human (h); Figure 1; ref Petzer et al., 2009; Müller and Jacobson, 2011; Brunschweiger et al., 2014; cited from earlier work.

The target of experiment [4] is T1, recombinant human MAO-B. As to conditions: human (h); Figure 1; ref Petzer et al., 2009; Müller and Jacobson, 2011; Brunschweiger et al., 2014; cited from earlier work.
Experiment [5] has as its target T2, recombinant human MAO-A. The experiment is described as follows: Monoamine oxidase assay (Amplex Red), MAO-A. Type of experiment: biochemical. As to conditions: for inhibition at 10 µM: at 10,000 nM, read-out: % inhibition at indicated concentration, Human MAO-A; for IC50: n = 3, read-out: IC50 ± SEM, Human MAO-A. The method in brief:
as §1

Experiment [6] deals with T3, human A2B AR (Homo sapiens, UniProt P29275).
T3 construct: expressed in transfected cells; host or cells: CHO cells
T3 sequence (P29275 1-332): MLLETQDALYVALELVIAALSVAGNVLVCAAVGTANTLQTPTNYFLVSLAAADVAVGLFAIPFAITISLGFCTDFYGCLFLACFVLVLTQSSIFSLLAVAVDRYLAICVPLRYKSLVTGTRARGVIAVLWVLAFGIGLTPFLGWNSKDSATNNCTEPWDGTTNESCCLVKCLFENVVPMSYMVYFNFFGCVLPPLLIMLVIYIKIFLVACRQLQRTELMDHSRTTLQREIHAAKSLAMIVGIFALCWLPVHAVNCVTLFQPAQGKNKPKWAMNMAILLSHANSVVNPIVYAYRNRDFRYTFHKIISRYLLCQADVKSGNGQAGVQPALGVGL
Briefly: Radioligand binding assay at human A2B AR vs. [^3H]PSB-603. The essentials:
(§2)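 Rat A1 affinity was measured on cortical membranes and rat A2A on striatal membranes from rat brain. Human A1, A2A, A2B and A3 subtypes were tested on membranes of CHO cells recombinantly expressing each receptor. No functional assays were run, as these xanthine-type compounds act only as blockers.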

Experiment [7] concerns the target T4, rat A1 AR (Rattus norvegicus, UniProt P25099).
T4 construct: A1 ARs of rat brain cortical membrane; from tissue; host or cells: rat brain cortex membranes
T4 sequence (P25099 1-326): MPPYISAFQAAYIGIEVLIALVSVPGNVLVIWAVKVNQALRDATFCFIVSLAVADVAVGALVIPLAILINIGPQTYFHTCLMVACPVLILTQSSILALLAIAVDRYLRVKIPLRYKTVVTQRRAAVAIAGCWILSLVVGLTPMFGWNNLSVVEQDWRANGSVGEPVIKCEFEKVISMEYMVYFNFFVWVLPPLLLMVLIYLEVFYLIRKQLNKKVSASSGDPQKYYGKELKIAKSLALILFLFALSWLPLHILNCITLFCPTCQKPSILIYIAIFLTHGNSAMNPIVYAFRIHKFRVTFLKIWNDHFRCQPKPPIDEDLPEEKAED
The experiment is described as follows: Radioligand binding assay at rat A1 AR (rat brain cortex) vs. [^3H]CCPA. Particulars: rat (r). The method in brief:
as §2

Experiment [8] relates to ARs. Briefly: Radioligand binding assays at adenosine receptors (statements on ARs in general). How it is done: Membrane preparations and radioligand binding assays at rat A1 (rat brain cortex) and rat A2A ARs (rat brain striatum) were performed as previously described (Ozola et al., [2003]; Alnouri et al., [2015]). For assays at human A1, A2A, A2B, and A3 ARs, CHO cell membranes expressing one of the human AR subtypes were used as previously reported (Klotz et al., [1998]; Alnouri et al., [2015]; De Filippo et al., [2016]).
The synthesized tetrahydropyrazino[2,1-f ]purinediones 13–20 were evaluated in radioligand binding assays for their affinity to A1 ARs of rat brain cortical membrane and to A2A ARs of rat brain striatal membrane preparations. Selected compounds were further investigated for their affinity to human A1 and A2A ARs recombinantly expressed in Chinese hamster ovary (CHO) cells. All compounds were additionally investigated for their affinity to human A2B and A3 ARs recombinantly expressed in CHO cells to determine their AR subtype selectivity. […] It is well known that all xanthine derivatives lacking a ribose moiety, including tricyclic compounds, can only block ARs, but never act as AR agonists; therefore, additional functional studies were not required. […] Potent MAO-B inhibitors were additionally investigated for inhibition of human MAO-A to assess their selectivity. Results are presented in Tables 1–6, and data of standard ligands are included for comparison.

Experiment [9] addresses T5, human A3 AR (Homo sapiens, UniProt P0DMS8).
T5 construct: expressed in transfected cells; host or cells: CHO cells
T5 sequence (P0DMS8 1-318): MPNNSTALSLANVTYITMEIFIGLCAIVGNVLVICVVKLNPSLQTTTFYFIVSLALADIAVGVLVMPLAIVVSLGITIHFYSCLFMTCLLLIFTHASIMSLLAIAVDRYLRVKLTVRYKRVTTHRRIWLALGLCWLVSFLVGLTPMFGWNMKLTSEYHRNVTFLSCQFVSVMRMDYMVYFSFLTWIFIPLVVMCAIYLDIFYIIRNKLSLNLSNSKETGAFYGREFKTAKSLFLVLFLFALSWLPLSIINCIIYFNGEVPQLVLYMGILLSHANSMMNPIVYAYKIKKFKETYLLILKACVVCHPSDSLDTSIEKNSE
Briefly: Radioligand binding assay at human A3 AR vs. [^3H]PSB-11. The essentials:
as §2

The target in experiment [10] is T6, rat A2A AR (Rattus norvegicus, UniProt P30543).
T6 construct: A2A ARs of rat brain striatal membrane preparations; from tissue; host or cells: rat brain striatum membranes
T6 sequence (P30543 whole entry): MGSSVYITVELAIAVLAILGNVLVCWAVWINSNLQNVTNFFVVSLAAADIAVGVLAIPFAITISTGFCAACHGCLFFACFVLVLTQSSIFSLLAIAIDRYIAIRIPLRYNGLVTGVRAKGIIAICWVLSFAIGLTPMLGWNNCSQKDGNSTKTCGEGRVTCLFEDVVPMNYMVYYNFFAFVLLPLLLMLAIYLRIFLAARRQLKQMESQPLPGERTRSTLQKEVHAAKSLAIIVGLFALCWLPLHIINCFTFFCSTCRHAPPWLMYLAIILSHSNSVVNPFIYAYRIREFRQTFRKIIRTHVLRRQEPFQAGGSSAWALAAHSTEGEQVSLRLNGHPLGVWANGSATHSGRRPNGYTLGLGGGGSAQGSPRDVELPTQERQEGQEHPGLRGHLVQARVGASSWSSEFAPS
Briefly: Radioligand binding assay at rat A2A AR (rat brain striatum) vs. [^3H]MSX-2. Particulars: rat (r). The essentials: as §2

Experiment [11] deals with T5, human A3 AR. Particulars: human (h); Figure 2; ref Chen et al., 2002; Stössel et al., 2013; Mihara et al., 2007; read-out: A3 (Ki); cited from earlier work.
For experiment [12], the system named is haloperidol-induced catalepsy. Also noted: method as in Mihara et al., 2007. As to conditions: monkeys; ref Mihara et al., 2007; cited from earlier work.

One may read the IC50 as the concentration that inhibits the measured activity by half. In the case of `CCn1c(=O)c2c(nc(/C=C/c3ccc(OC)c(OC)c3)n2C)n(CC)c1=O` [Istradefylline, istradefylline, reference compound], the “result in the passive avoidance test” value in experiment [1] is “inactive”. For the same compound, the inhibition at 10 µM in experiment [2] is 20%; in [5] it was 18%. The IC50 in experiment [2], in experiment [3], in experiment [4] and in [5] was more than 10 µM throughout.
In general, Ki refers to the equilibrium dissociation constant of an inhibitor or competing ligand from its target. For `CCn1c(=O)c2c(nc3n2CCN(Cc2cc(C(F)(F)F)cc(C(F)(F)F)c2)C3)n(C)c1=O` [Compound 14q, 8-(3,5-bis(trifluoromethyl)benzyl)-3-ethyl-1-methyl-6,7,8,9-tetrahydropyrazino[2,1-f]purine-2,4(1H,3H)-dione], the Ki in experiment [6] (CHO cell membranes, n = 2 (n = 3 where marked a), read-out: Ki ± SEM, A2B vs. [^3H]PSB-603) is more than 1 µM; in experiment [7] (rat brain cortex, n = 3) it was more than 1.5 µM; in experiment [9] (CHO cell membranes, n = 2 (n = 3 where marked a), read-out: Ki ± SEM, A3 vs. [^3H]PSB-11) it was more than 10 µM; in experiment [10] (rat brain striatum, n = 3, read-out: Ki ± SEM, A2A vs. [^3H]MSX-2), more than 1 µM. Further, the inhibition at 1 µM in [6] (at 1,000 nM, read-out: % inhibition of radioligand binding at indicated concentration, A2B vs. [^3H]PSB-603) was 2%. Also, the inhibition at 1.5 µM in experiment [7] (read-out: % inhibition of radioligand binding at indicated concentration, A1 vs. [^3H]CCPA, at 1,500 nM) stood at 31%. In experiment [8], the “affinity for ARs (in words)” value was “nearly inactive”. Further, the inhibition at 10 µM in experiment [9] (at 10,000 nM, read-out: % inhibition of radioligand binding at indicated concentration, A3 vs. [^3H]PSB-11) is 32%; in experiment [2], 56%; in experiment [5] it was 8%. Further, the results for the IC50 in [2] and in [5] were less than 10 µM and more than 10 µM, respectively. In addition, the “% inhibition of radioligand binding at indicated concentration, A2A vs. [^3H]MSX-2” value in experiment [10] (at 1,000 nM) was 39%.
With `CC(C)n1cc(-c2ncc(N)nc2-c2ccc(F)cc2)ccc1=O` [ASP-5854, 5-[5-amino-3-(4-fluorophenyl)pyrazin-2-yl]-1-isopropylpyridine-2(1H)-one], the Ki in experiment [11] was more than 0.557 µM. In addition, the “result in the passive avoidance test” value in experiment [1] is “positive results”. In addition, in [12], the “effect on haloperidol-induced catalepsy” value is “reversed”.
